Series [1] deals with T1, GLP-1 receptor (Homo sapiens, UniProt P43220). As to the kind of experiment: GLP-receptor luciferase bioassay of samples incubated in 20% human plasma (restored activity). In kind it is cell-based. To be noted: 37° C. As for the experimental part:
To explore the possible formation of DKP and simultaneous regeneration of the parent drug, the above-mentioned peptides were incubated in 20% human plasma at 37° C. for approximately 5 days. Samples were collected at different time points (0, 1, 2, and 5 days).
Target sequence in this assay (P43220 24-463): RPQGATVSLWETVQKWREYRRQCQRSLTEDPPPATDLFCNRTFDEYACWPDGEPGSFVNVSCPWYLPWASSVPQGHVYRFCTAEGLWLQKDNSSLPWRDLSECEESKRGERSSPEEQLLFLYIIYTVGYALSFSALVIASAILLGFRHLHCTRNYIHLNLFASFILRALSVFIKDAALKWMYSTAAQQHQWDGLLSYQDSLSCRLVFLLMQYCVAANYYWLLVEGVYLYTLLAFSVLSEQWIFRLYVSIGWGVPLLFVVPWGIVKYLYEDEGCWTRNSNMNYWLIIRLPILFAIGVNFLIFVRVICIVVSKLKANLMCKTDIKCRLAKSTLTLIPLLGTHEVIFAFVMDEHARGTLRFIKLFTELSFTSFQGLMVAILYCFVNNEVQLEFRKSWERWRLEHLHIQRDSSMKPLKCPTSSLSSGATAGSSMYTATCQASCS

The format of series [2] is physicochemical. To be noted: buffer. As for the experimental part:
Preliminary analyses were performed with these crude peptides for an approximation of their relative conversion rates in Phosphate Buffered Saline (PBS) buffer (pH, 7.2) using high performance liquid chromatography (HPLC) and MALDI analysis. The crude peptide samples were dissolved in the PBS buffer at a concentration of 1 mg/mL. […] Aliquots of 100 μL were drawn out at various time intervals, cooled to room temperature and analyzed by HPLC. […] The peptides described above were incubated in PBS buffer or serum at 37° C. for up to 8 days. Samples were collected at different time points for PBS and plasma and half-life was determined. […] The peptides described above were incubated in PBS buffer or serum at 37° C. for up to 8 days. Samples were collected at different time points for PBS and plasma and half-life was determined. […] The shorter half-life seen when the acylated dipeptide was linked to […] might be due to a conformational change that facilitates cleavage when bound to plasma or alternatively to reduced detection of the acylated form when bound to plasma.

Series [3] is classed as in vitro ADME. As for the experimental part: The peptides described above were incubated in PBS buffer or serum at 37° C. for up to 8 days. Samples were collected at different time points for PBS and plasma and half-life was determined. […] The peptides described above were incubated in PBS buffer or serum at 37° C. for up to 8 days. Samples were collected at different time points for PBS and plasma and half-life was determined. […] The shorter half-life seen when the acylated dipeptide was linked to […] might be due to a conformational change that facilitates cleavage when bound to plasma or alternatively to reduced detection of the acylated form when bound to plasma.

Series [4] has as its target glucagon receptor (UniProt P47871). As to the kind of experiment: cell-based or functional assay.
For series [5], the target named is T1, GLP-1 receptor. As to the kind of experiment: cell-based or functional assay.
Target sequence in this assay (P43220 24-463 limits assumed): as the sequence (P43220 24-463) above
The target in series [6] is glucagon receptor (UniProt P47871). The series can be described thus: cell-based or functional assay. This is another data set of the same source.
The target in another series is T2, GIP receptor (UniProt P48546 22-466).
T2 sequence (looked up): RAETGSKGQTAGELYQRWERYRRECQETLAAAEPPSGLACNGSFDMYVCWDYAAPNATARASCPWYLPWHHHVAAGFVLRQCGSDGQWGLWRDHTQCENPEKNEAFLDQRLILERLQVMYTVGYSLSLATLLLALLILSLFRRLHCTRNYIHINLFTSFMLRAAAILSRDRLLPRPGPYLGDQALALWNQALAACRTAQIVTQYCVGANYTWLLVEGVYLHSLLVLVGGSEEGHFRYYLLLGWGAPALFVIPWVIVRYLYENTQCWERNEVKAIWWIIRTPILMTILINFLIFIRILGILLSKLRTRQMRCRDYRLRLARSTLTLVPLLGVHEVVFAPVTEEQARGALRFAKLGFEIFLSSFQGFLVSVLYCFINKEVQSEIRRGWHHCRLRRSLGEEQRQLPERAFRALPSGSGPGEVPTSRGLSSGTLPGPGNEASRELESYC
As to the kind of experiment: cell-based or functional assay.

Series [7] concerns the target GLP-1 receptor (UniProt P43220 24-463, limits assumed). As to the kind of experiment: cell-based or functional assay.

A word on the half-life: it is how long it takes for the measured level to halve. A low value points to rapid decline.

Where two headings read alike, the source gives them in different places. Starred links: 1 amine or outer side, 2 acyl side, 3 side chain; linkers in the order of their positions; H or OH if unused. Non-standard residues stand in square brackets, D forms with d. Residues, ends and D or L forms follow the SMILES beside them. Groups on a side chain read outwards from the residue. No end group written: not given here. *: point of attachment. Phe(4-NH2) = Nc1ccc(C[C@H](N)C(=O)O)cc1; Arachidoyl = CCCCCCCCCCCCCCCCCCCC(=O)*; d(εLys) = N[C@H](CCCCN[*:1])C(=O)[*:2]; Aib = CC(C)(N)C(=O)O; Sar = CNCC(=O)O

Sequence of glucagon receptor (P47871 26-477 limits assumed): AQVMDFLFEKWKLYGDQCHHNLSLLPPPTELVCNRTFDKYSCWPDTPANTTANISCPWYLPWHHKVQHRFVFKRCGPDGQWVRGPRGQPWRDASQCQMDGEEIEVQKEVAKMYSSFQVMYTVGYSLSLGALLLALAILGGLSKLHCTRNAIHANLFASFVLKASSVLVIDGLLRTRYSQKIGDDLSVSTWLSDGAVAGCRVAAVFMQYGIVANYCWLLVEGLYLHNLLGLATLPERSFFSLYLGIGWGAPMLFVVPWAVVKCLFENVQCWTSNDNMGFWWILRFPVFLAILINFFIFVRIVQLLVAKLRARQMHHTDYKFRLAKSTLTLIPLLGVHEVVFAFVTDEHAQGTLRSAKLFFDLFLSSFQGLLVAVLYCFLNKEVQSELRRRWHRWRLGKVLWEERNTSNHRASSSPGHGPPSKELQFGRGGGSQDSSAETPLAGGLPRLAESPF

For `CCCCCCCCCCCCCCCCCCCC(=O)NCCCC[C@@H](N)C(=O)N(C)CC(=O)Nc1ccc(C[C@H](NC(=O)[C@H](CC(=O)O)NC(=O)[C@H](CO)NC(=O)[C@@H](NC(=O)[C@H](Cc2ccccc2)NC(=O)[C@@H](NC(=O)CNC(=O)[C@H](CCC(=O)O)NC(=O)C(C)(C)NC(=O)[C@@H](N)Cc2ccccc2)[C@@H](C)O)[C@@H](C)O)C(=O)N[C@@H](CO)C(=O)N[C@H](C(=O)N[C@@H](Cc2ccc(O)cc2)C(=O)N[C@@H](CC(C)C)C(=O)N[C@@H](CC(=O)O)C(=O)N[C@@H](CCCCN)C(=O)N[C@@H](CCC(N)=O)C(=O)N[C@@H](C)C(=O)N[C@@H](C)C(=O)NC(C)(C)C(=O)N[C@@H](CCC(=O)O)C(=O)N[C@@H](Cc2ccccc2)C(=O)N[C@H](C(=O)N[C@@H](CC(N)=O)C(=O)N[C@@H](Cc2c[nH]c3ccccc23)C(=O)N[C@@H](CC(C)C)C(=O)N[C@@H](CC(C)C)C(=O)N[C@@H](C)C(=O)NCC(=O)NCC(=O)N2CCC[C@H]2C(=O)N[C@@H](CO)C(=O)N[C@@H](CO)C(=O)NCC(=O)N[C@@H](C)C(=O)N2CCC[C@H]2C(=O)N2CCC[C@H]2C(=O)N2CCC[C@H]2C(=O)N[C@@H](CO)C(N)=O)C(C)C)[C@@H](C)CC)cc1` (H-F[Aib]EGTFTSD[Phe(4-NH2)]([Sar-d(εLys)-Arachidoyl])SIYLDKQAA[Aib]EFVNWLLAGGPSSGAPPPS-NH2; N-terminus and C-terminus assumed), the “Relative activity to GLP-1 standard” value is reported as 30.9% on GLP-1 receptor [1] (0 d), 37.8% on GLP-1 receptor [1] (1 d) and 96.9% at GLP-1 receptor [1] (5 d). Besides, the “Restored (activity relative to parent peptide)” value is “Restored 36%” on GLP-1 receptor [1] (0 d), “Restored 45%” on GLP-1 receptor [1] (1 d) and “Restored 133%” on GLP-1 receptor [1] (5 d). Moreover, at GLP-1 receptor [1] (0 to 5 d), the “Change of activity over the time points in plasma” value is recorded as “Activity Restored”. In series [2], this molecule showed a half-life of roughly 24 h.

Regarding `CCCCCCCCCCCCCCCCCCCCCC(=O)NCCCC[C@@H](N)C(=O)N(C)CC(=O)NCCCC[C@H](NC(=O)[C@H](CO)NC(=O)[C@@H]1CCCN1C(=O)[C@@H]1CCCN1C(=O)[C@@H]1CCCN1C(=O)[C@H](C)NC(=O)CNC(=O)[C@H](CO)NC(=O)[C@H](CO)NC(=O)[C@@H]1CCCN1C(=O)CNC(=O)CNC(=O)[C@H](C)NC(=O)[C@H](CC(C)C)NC(=O)[C@H](CC(C)C)NC(=O)[C@H](Cc1c[nH]c2ccccc12)NC(=O)[C@H](CC(N)=O)NC(=O)[C@@H](NC(=O)[C@H](Cc1ccccc1)NC(=O)[C@H](CCC(=O)O)NC(=O)C(C)(C)NC(=O)[C@H](C)NC(=O)[C@H](C)NC(=O)[C@H](CCC(N)=O)NC(=O)[C@H](CCCCN)NC(=O)[C@H](CC(=O)O)NC(=O)[C@H](CC(C)C)NC(=O)[C@H](Cc1ccc(O)cc1)NC(=O)[C@@H](NC(=O)[C@H](CO)NC(=O)[C@H](Cc1ccc(O)cc1)NC(=O)[C@H](CC(=O)O)NC(=O)[C@H](CO)NC(=O)[C@@H](NC(=O)[C@H](Cc1ccccc1)NC(=O)[C@@H](NC(=O)CNC(=O)[C@H](CCC(=O)O)NC(=O)C(C)(C)NC(=O)[C@@H](N)Cc1ccc(O)cc1)[C@@H](C)O)[C@@H](C)O)[C@@H](C)CC)C(C)C)C(=O)O` [Peptide H], the half-life in series [3] and in series [2] was roughly 120 h in each case.

Regarding `CCCCCCCCCCCCCCCCCCCCCC(=O)NCCCC[C@@H](N)C(=O)N(C)CC(=O)NCCCC[C@H](NC(=O)[C@H](CO)NC(=O)[C@H](Cc1ccc(O)cc1)NC(=O)[C@H](CC(=O)O)NC(=O)[C@H](CO)NC(=O)[C@@H](NC(=O)[C@H](Cc1ccccc1)NC(=O)[C@@H](NC(=O)CNC(=O)[C@H](CCC(=O)O)NC(=O)C(C)(C)NC(=O)[C@@H](N)Cc1ccc(O)cc1)[C@@H](C)O)[C@@H](C)O)C(=O)N[C@@H](Cc1ccc(O)cc1)C(=O)N[C@@H](CC(C)C)C(=O)N[C@@H](CC(=O)O)C(=O)N[C@@H](CCCCN)C(=O)N[C@@H](CCC(N)=O)C(=O)N[C@@H](C)C(=O)N[C@@H](C)C(=O)NC(C)(C)C(=O)N[C@@H](CCC(=O)O)C(=O)N[C@@H](Cc1ccccc1)C(=O)N[C@H](C(=O)N[C@@H](CC(N)=O)C(=O)N[C@@H](Cc1c[nH]c2ccccc12)C(=O)N[C@@H](CC(C)C)C(=O)N[C@@H](CC(C)C)C(=O)N[C@@H](C)C(=O)NCC(=O)NCC(=O)N1CCC[C@H]1C(=O)N[C@@H](CO)C(=O)N[C@@H](CO)C(=O)NCC(=O)N[C@@H](C)C(=O)N1CCC[C@H]1C(=O)N1CCC[C@H]1C(=O)N1CCC[C@H]1C(=O)N[C@@H](CO)C(=O)O)C(C)C` [Peptide F], in series [3], the half-life was less than 24 h.

`CCCCCCCCCCCCCCCCCC(=O)NCCCC[C@@H](N)C(=O)N(C)CC(=O)NCCCC[C@H](NC(=O)[C@H](CC(=O)O)NC(=O)[C@H](CO)NC(=O)[C@@H](NC(=O)[C@H](Cc1ccccc1)NC(=O)[C@@H](NC(=O)CNC(=O)[C@H](CCC(=O)O)NC(=O)C(C)(C)NC(=O)[C@@H](N)Cc1ccccc1)[C@@H](C)O)[C@@H](C)O)C(=O)N[C@@H](CO)C(=O)N[C@H](C(=O)N[C@@H](Cc1ccc(O)cc1)C(=O)N[C@@H](CC(C)C)C(=O)N[C@@H](CC(=O)O)C(=O)N[C@@H](CCCCN)C(=O)N[C@@H](CCC(N)=O)C(=O)N[C@@H](C)C(=O)N[C@@H](C)C(=O)NC(C)(C)C(=O)N[C@@H](CCC(=O)O)C(=O)N[C@@H](Cc1ccccc1)C(=O)N[C@H](C(=O)N[C@@H](CC(N)=O)C(=O)N[C@@H](Cc1c[nH]c2ccccc12)C(=O)N[C@@H](CC(C)C)C(=O)N[C@@H](CC(C)C)C(=O)N[C@@H](C)C(=O)NCC(=O)NCC(=O)N1CCC[C@H]1C(=O)N[C@@H](CO)C(=O)N[C@@H](CO)C(=O)NCC(=O)N[C@@H](C)C(=O)N1CCC[C@H]1C(=O)N1CCC[C@H]1C(=O)N1CCC[C@H]1C(=O)N[C@@H](CO)C(=O)O)C(C)C)[C@@H](C)CC` [Peptide E]: the half-life in series [3] and in series [2] was roughly 168 h in each case.

On to `CCCCCCCCCCCCCCCCCCCCCC(=O)NCCCC[C@@H](N)C(=O)N(C)CC(=O)NCCCC[C@H](NC(=O)[C@H](CC(=O)O)NC(=O)[C@H](CC(C)C)NC(=O)[C@H](Cc1ccc(O)cc1)NC(=O)[C@@H](NC(=O)[C@H](CO)NC(=O)[C@H](Cc1ccc(O)cc1)NC(=O)[C@H](CC(=O)O)NC(=O)[C@H](CO)NC(=O)[C@@H](NC(=O)[C@H](Cc1ccccc1)NC(=O)[C@@H](NC(=O)CNC(=O)[C@H](CCC(=O)O)NC(=O)C(C)(C)NC(=O)[C@@H](N)Cc1ccc(O)cc1)[C@@H](C)O)[C@@H](C)O)[C@@H](C)CC)C(=O)N[C@@H](CCC(N)=O)C(=O)N[C@@H](C)C(=O)N[C@@H](C)C(=O)NC(C)(C)C(=O)N[C@@H](CCC(=O)O)C(=O)N[C@@H](Cc1ccccc1)C(=O)N[C@H](C(=O)N[C@@H](CC(N)=O)C(=O)N[C@@H](Cc1c[nH]c2ccccc12)C(=O)N[C@@H](CC(C)C)C(=O)N[C@@H](CC(C)C)C(=O)N[C@@H](C)C(=O)NCC(=O)NCC(=O)N1CCC[C@H]1C(=O)N[C@@H](CO)C(=O)N[C@@H](CO)C(=O)NCC(=O)N[C@@H](C)C(=O)N1CCC[C@H]1C(=O)N1CCC[C@H]1C(=O)N1CCC[C@H]1C(=O)N[C@@H](CO)C(=O)O)C(C)C` [Peptide G], for which the half-life in series [3] and in series [2] was greater than 168 h in each case.

In the series with glucagon receptor [4], “E9, E16K20(lactam) glucagon(6-39) Cex peptide (Table 1 peptide 3)” came in with a Glucagon IC50 of 0.042 µM. Moreover, in the series with GLP-1 receptor [5], the GLP-1 EC50 is 0.036 µM. Moreover, the Glu IC50 with glucagon receptor [6] was found to be 0.042 µM.

In the series with glucagon receptor [4], “[PLA6, E9, K12E16(Lactam)] glucagon(6-39) Cex peptide (Table 1 peptide 5)” showed a Glucagon IC50 of 0.072 µM. Also, the GLP-1 EC50 with GLP-1 receptor [5] stood at 0.006 µM. The Glu IC50 with glucagon receptor [6] turned out to be 0.072 µM.

On to Y[Aib]EGTFTSDYSK([Sar-dK-C22 acyl])YLDKQAA[Aib]EFVNWLLAGGPSSGAPPPS-NH2 [Peptide F of Example 8 with C22-acylated (d)Lysine-sarcosine dipeptide on Lysine at position 12], for which the “EC50-GIP, relative activity to GIP standard” value in the series with GIP receptor was 30.2%. The “EC50-GLP, relative activity to GLP-1 standard” value in the series with GLP-1 receptor [7] is 17.4%.

As for Y[Aib]EGTFTSDYSIYLDK([Sar-dK-C22 acyl])QAA[Aib]EFVNWLLAGGPSSGAPPPS-NH2 [Peptide G with C22-acylated (d)Lysine-sarcosine dipeptide on Lysine at position 16], the “EC50-GIP, relative activity to GIP standard” value with GIP receptor is 58.5%. The “EC50-GLP, relative activity to GLP-1 standard” value with GLP-1 receptor [7] worked out at 24.7%.

Values taken from patent US20160058881A1, “PRODRUGS WITH PROLONGED ACTION” (INDIANA UNIVERSITY RESEARCH AND TECHNOLOGY CORPORATION, priority 2013, published 2016).
